{"source": "patent US9073982B2", "about": "“Targets for regulation of angiogenesis” (The University of North Carolina at Chapel Hill, priority 2008, dated 2015)", "molecules": {"B1": {"name": "SFRP2 MAb (80.8.6): monoclonal antibody produced by hybridoma cell line UNC 68-80 (subclone 80.8.6), ATCC PTA-11762; VH SEQ ID NO:13, VL SEQ ID NO:15 (antibody, V domains shown)", "VH": "QVQLQQPGAELVQPGASVMLSCKASGFTFTRYWWHWVRQTPGRGLEWIGRIDPNSGTTRFIEKFKTKATLTVDKPSSTAYMHLSSLTSEDSAVYYCARWGPYYGYAMDYWGPGTSVTVSS", "VL": "QIVLTQSPAIMSASPGQKVTITCSASSSVTYMHWYQQKLGSSPKLWIYDTSRLAPGSPARFSGSGSGTSYSLTISSMETEDAASYFCHQWSTYPPTFGTGTKLEIQ", "modifications": "Heavy chain variable region sequence; Light chain variable region sequence"}}, "key": {"SVR angiosarcoma cells": {"system": "SVR angiosarcoma cells", "assay": "SVR angiosarcoma cell tube formation assay", "assay_type": "cell-based, mouse", "conditions": "for inhibition of SVR tube formation by sera compared to control mouse sera: sera at 1:100 dilution", "procedure": "(§1) The tube formation properties of SFRP2 on MEC cells were evaluated using an endothelial cell tube formation assay. ECMATRIX (Chemicon) was thawed, diluted and solidified in a 96 well plate according to the manufactures instructions. 1×10^4 cells/well in 150 μl of DMEM (cellgro) with 10% FBS (HyClone) and a concentration range (3-3000 pM) of SFRP2 (US Biologicals) were seeded onto the matrix and returned to 37° C., 5% CO2 for 8 hours. Images were acquired using the Nikon Eclipse TS100 microscope at 4× magnification with a Nikon CoolPix 995 digital camera. Results were quantified by counting the number of branch point. To evaluate whether tacrolimus inhibits SFRP2 induced tube formation, MEC cells were treated as above with SFRP2 30 nM with and without tacrolimus (1 μM-100 uM) for 8 hours and branch points were determined as described above. To evaluate whether inhibitors of SFRP2-mediated angiogenesis would inhibit the growth of SVR tumor cells, SVR cells were treated with tacrolimus (1 μM-100 μM) or with a rabbit polyclonal antibody to SFRP-2 (H-140) (Santa Cruz Biotechnology, Santa Cruz, Calif., catalogue 4 sc-13940) in the tube formation assay.\nAs a further test of the contribution of SFRP2 to endothelial tube formation, it was evaluated whether loss of function of SFRP2 would inhibit SVR angiosarcoma tube formation. This was studied two different ways, first with a blocking antibody to SFRP2, and then using siRNA to SFRP2. SVR cells were plated in MATRIGEL in a tube formation assay and treated with a polyclonal antibody to SFRP2. […] After 72 h of transfection using LIPOFECTAMINE™ RNAiMAX Transfection reagent (Invitrogen) according to the manufacturer's protocol, cells were harvested and ready for Western blot analyses and tube formation assay.\nMonoclonal antibodies for the epitope corresponding to AbB (AA202-AA220) were prepared. […] The angiosarcoma cells were suspended in 150 μl of antibody containing growth media for 90 different samples and control media, After 6 hours, pictures were taken and the number of branch points for each well was counted. […]"}, "[1]": {"system": "mouse endothelial cells (MEC)", "assay": "Endothelial cell tube formation assay, MEC cells", "assay_type": "cell-based", "conditions": "for inhibition of SFRP2 induced tube formation: SFRP2 7 nM or 30 nM, tacrolimus 1 μM-100 uM, 8 hours", "procedure": "The tube formation properties of SFRP2 on mouse endothelial cells (MEC) cells were evaluated using an endothelial cell tube formation assay. ECMATRIX (Chemicon) was thawed, diluted and solidified in a 96 well plate according to the manufacturer's instructions. 1×10^4 cells/well in 150 μl of DMEM (celigro) with 10% FBS (HyClone) and a concentration range (7-7000 pM) of SFRP2 (US Biologicals) were seeded onto the matrix and returned to 37° C., 5% CO2 for 8 hours. Images were acquired using the Nikon Eclipse TS100 microscope at 4× magnification with a Nikon CoolPix 995 digital camera. Results were quantified by counting the number of branch points.\n(§2) To evaluate whether tacrolimus inhibits SFRP2 induced tube formation, MEC cells were treated as above with SFRP2 7 nM with and without tacrolimus 100 uM for 8 hours and branch points were determined as described above. To evaluate whether tacrolimus reversed established tubes, cells were incubated with SFRP2 7 nM for 8 hours and then BSA or tacrolimus 100 μM was added to SFRP2 treated cells for an additional 4 hours, and then the number of branch points were counted. […] Tacrolimus was not cytotoxic to MEC cells, as only 5% of tacrolimus-treated cells took up trypan blue dye (data not shown).\nas §1"}, "[2]": {"system": "SVR angiosarcoma xenografts", "assay": "SVR angiosarcoma xenografts in nude mice", "assay_type": "in vivo", "conditions": "for growth of SVR angiosarcoma xenografts: nude mice", "procedure": "To test the ability of tacrolimus to inhibit angiogenesis in vivo, SVR mouse angiosarcoma cells (0.5×10^6) were injected into the flank of 6-week-old nude male mice obtained from Charles River Breeding Laboratories. Treatment was initiated on the day after inoculation. Mice received 3 mg/kg/daily tacrolimus or vehicle control suspended in 20% Intralipid (Baxter Healthcare, Deerfield, Ill.) in a total volume of 0.3 ml intraperitoneally (i.p.), and were treated daily for 19 days. Serial caliper measurements of perpendicular diameters were used to calculate tumor volume using the following formula: (shortest diameter)^2×(longest diameter)×0.52. Differences in tumor volume over time were analyzed with a two way ANOVA. A P value of ≦0.05 indicated a statistically significant reduction in tumor growth of the treated group compared to the control group. […] Treatment with tacrolimus reduced mean tumor volume by 46% at day 19 (589±129 mm^3 vs 315±93 mm^3, two-way ANOVA, p=0.04, FIG. 26).\nThe ability of a monoclonal antibody recognizing SFRP2 to inhibit tumor growth in vivo was tested in a nude mouse assay. The SFRP2 MAb subclone 80.8.6 was first tested with SVR angiosarcoma xenografts. Six week old nude mice were injected with 1×10^6 SVR angiosarcoma cells. The day after injections treated mice received SFRP2 MAb(80.8.6) 4 mg/kg i.v. twice weekly (n=5), and controls received equal volumes of buffer. At day 14 there was a 65% decrease in tumor volume (*p=0.03, two-tailed student's t-test) (FIG. 34)."}, "2H11 cells": {"system": "2H11 cells", "assay": "2H11 endothelial MATRIGEL tube formation assay", "assay_type": "cell-based, mouse", "conditions": "for inhibition of SFRP2 stimulated endothelial tube formation: SFRP2 stimulated 2H11 cells; for inhibition of VEGF stimulated endothelial tube formation: VEGF stimulated 2H11 cells", "excerpt": "The ability for tacrolimus to inhibit SFRP2 and VEGF stimulated 2H11 endothelial tube formation in vitro was studied in a MATRIGEL tube formation assay."}, "[3]": {"system": "MMTV-neu transgenic mouse tumors", "assay": "MMTV-neu transgenic mouse tumor growth", "assay_type": "in vivo", "procedure": "In a second study, MMTV-neu transgenic mice were treated with tacrolimus 3 mg/kg/daily or no treatment. Treatment began when tumors were palpable and continued for 21 days. Tumor volumes were monitored with serial ultrasounds. A two-tailed T-test was used to determine the difference between growth rates of the tumors between treated and non-treated tumors."}, "MEC cells": {"system": "MEC cells", "assay": "Trypan blue uptake (cytotoxicity) in MEC cells", "assay_type": "cell-based, mouse", "conditions": "tacrolimus-treated MEC cells", "procedure": "as §2"}, "[4]": {"system": "MDA-MB-231 breast cancer xenografts", "assay": "MDA-MB-231 breast cancer xenografts in nude mice", "assay_type": "in vivo", "conditions": "4 mg/kg i.v. twice weekly", "procedure": "The SFRP2 MAb subclone 80.8.6 was next tested with MDA-MB-231 breast cancer xenografts. Six week old female nude mice were injected with 1×10^6 MDA-MB-231 cells. After 4 weeks, when tumors were palpable, mice received SFRP2 MAb (80.8.6) 4 mg/kg i.v. twice weekly (n=12), and controls received equal volumes of buffer. At day 8 the median tumor volume for controls was 1200 mm^3, and for SFRP2 MAb treated mice was 580 mm^3, which represents a 52% decrease in tumor volume (p=0.04, two-tailed student's t-test)."}, "[5]": {"conditions": "tacrolimus 3 mg/kg/daily i.p., day 19"}}, "note": "“Also recorded” adds a separate entry of the source."}
{"molecule": "AbC: sera from mouse immunized against SFRP2 epitope amino acids AA270-AA295 (ITSVKRWQKGQREFKRISRSIRKLQC)", "values": [{"measurement": "inhibition of SVR tube formation by sera compared to control mouse sera", "setting": "SVR angiosarcoma cells", "result": "inhibited SVR tube formation; also recorded: greatest inhibition"}]}
{"molecule": "AbB: sera from mouse immunized against SFRP2 epitope amino acids AA202-AA220 (EITYINRDTKIILETKSKTC)", "values": [{"measurement": "inhibition of SVR tube formation by sera compared to control mouse sera", "setting": "SVR angiosarcoma cells", "result": "inhibited SVR tube formation; also recorded: greatest inhibition"}]}
{"molecule": "C=CC[C@@H]1/C=C(\\C)C[C@H](C)C[C@H](OC)[C@H]2O[C@@](O)(C(=O)C(=O)N3CCCC[C@H]3C(=O)O[C@H](/C(C)=C/[C@@H]3CC[C@@H](O)[C@H](OC)C3)[C@H](C)[C@@H](O)CC1=O)[C@H](C)C[C@@H]2OC", "note": "[tacrolimus]", "values": [{"measurement": "inhibition at 1 µM", "setting": "[1]; Mus musculus, Endothelial cell, tacrolimus 1 μM, SFRP2 30 nM, read-out: inhibition of SFRP2 induced tube formation", "result": 64, "unit": "%"}, {"measurement": "reversal of established SFRP2-induced tubes", "setting": "[1]; SFRP2 7 nM 8 hours, then tacrolimus 100 μM for 4 hours", "result": "reversed SFRP2-induced tube formation; also recorded: reverses SFRP2-induced mouse endothelial cell tube formation"}, {"measurement": "inhibition of SFRP2 induced tube formation", "setting": "[1]", "result": "inhibits SFRP2-induced mouse endothelial cell tube formation; also recorded: inhibits tube formation in SFRP2-induced MEC cells"}, {"measurement": "inhibition of SFRP2 induced tube formation", "setting": "[1]; listed as Tacrolimus", "result": "inhibited SFRP2 induced tube formation"}, {"measurement": "growth of SVR angiosarcoma xenografts", "setting": "[2]", "result": "effective at suppressing the growth; also recorded: inhibits the growth"}, {"measurement": "signs of toxicity (diarrhea, infection, lethargy, weight loss)", "setting": "[2]; tacrolimus 3 mg/kg/daily i.p., 19 days", "result": "no signs of toxicity"}, {"measurement": "mean tumor volume", "setting": "[2]; [5]", "result": "315±93", "unit": "mm^3"}, {"measurement": "reduction of mean tumor volume", "setting": "[2]; [5]", "result": 46, "unit": "%"}, {"measurement": "inhibition of SFRP2 stimulated endothelial tube formation", "setting": "2H11 cells", "result": "inhibits SFRP2-induced mouse endothelial cell tube formation"}, {"measurement": "inhibition of SFRP2 stimulated endothelial tube formation", "setting": "2H11 cells; listed as Tacrolimus", "result": "inhibited endothelial tube formation"}, {"measurement": "inhibition of VEGF stimulated endothelial tube formation", "setting": "2H11 cells", "result": "inhibits VEGF-induced mouse endothelial cell tube formation"}, {"measurement": "inhibition of VEGF stimulated endothelial tube formation", "setting": "2H11 cells; listed as Tacrolimus", "result": "inhibited endothelial tube formation"}, {"measurement": "inhibition of SVR angiosarcoma tube formation", "setting": "SVR angiosarcoma cells", "result": "inhibited by tacrolimus; also recorded: inhibits tube formation in SVR angiosarcoma cells"}, {"measurement": "growth rate of MMTV-neu tumors", "setting": "[3]; mouse, in vivo", "result": "inhibits the growth rate"}, {"measurement": "signs of toxicity (diarrhea, infection, lethargy, weight loss)", "setting": "[3]; tacrolimus 3 mg/kg/daily, 21 days", "result": "no signs of toxicity"}, {"measurement": "reduction in tumor growth rate", "setting": "[3]; tacrolimus 3 mg/kg/daily, day 21", "result": 59, "unit": "%"}, {"measurement": "treated cells that took up trypan blue dye", "setting": "MEC cells", "result": 5, "unit": "%"}]}
{"molecule": "B1", "values": [{"measurement": "toxicity or weight loss", "setting": "[2]; 4 mg/kg i.v. twice weekly", "result": "No toxicity or weight loss"}, {"measurement": "decrease in tumor volume", "setting": "[2]; 4 mg/kg i.v. twice weekly, day 14", "result": 65, "unit": "%"}, {"measurement": "growth of SVR angiosarcoma xenografts", "setting": "[2]", "result": "inhibits the growth"}, {"measurement": "toxicity or weight loss", "setting": "[4]", "result": "No toxicity or weight loss"}, {"measurement": "decrease in tumor volume", "setting": "[4]; day 8", "result": 52, "unit": "%"}, {"measurement": "median tumor volume", "setting": "[4]; day 8", "result": 580, "unit": "mm^3"}]}
